Molecules are shown by their SMILES.

This test concerns adalimumab-specific IgG response. Description: ADA against adalimumab in hIgG1 Tg mice over time, ELISA (Example 3, 63 days). The format is in vivo, C57BL/6-Tg (hIgG1,k,l) mice. Conditions: 40 mg/kg/day via food admix from one day before first immunization until day 28, blood samples to day 56, vs vehicle. How it is done: 15-week-old female mice C57BL/6-Tg (hIgG1,k,l) were purchased from Taconic (Denmark) and housed at the animal facilities in room with air-conditioned under a 12 hours light/dark cycle in macrolon boxes with enriched environment and free access to water and food. 7×10 μg of Humira (Adalimumab, Abbvie Germany GmbH) were injected at day 0, 4, 7, 11, 14, 18 and 21 subcutaneously in the right flank or the left flank alternatively. The dosage of (2S,4R)-4-[4-(1-methyl-1H-pyrazol-4-yl)-2-trifluoromethyl-benzenesulfonyl]-1-(1-trifluoromethyl-cyclopropanecarbonyl)-pyrrolidine-2-carboxylic acid (1-cyano-cyclopropyl)-amide consumption was 40 mg/kg/day. (2S,4R)-4-[4-(1-methyl-1H-pyrazol-4-yl)-2-trifluoromethyl-benzenesulfonyl]-1-(1-trifluoromethyl-cyclopropanecarbonyl)-pyrrolidine-2-carboxylic acid (1-cyano-cyclopropyl)-amide was given via food admix (Ssniff Spezialdiäten, Germany) daily from one day before the first Humira immunization until day 28. […]
Nunc Maxisorp flat-bottom 96 well ELISA plates were coated with 100 μl per well of Humira or CEA-PGLALA respectively at 5 μg/mL in NaHCO3100 mM buffer overnight at +4° C. […] 100 μl of substrate P-nitrophenyl phosphate ready to use (Life Technologies, Cat no 002212) were added per well and after 10 min incubation at room temperature, the OD at 405 nm was read as an end-point measurement with a Versamax ELISA reader.
A general note: In an ELISA, binding on a coated surface is turned into a signal by an enzyme label.

Take `Cn1cc(-c2ccc(S(=O)(=O)[C@@H]3C[C@@H](C(=O)NC4(C#N)CC4)N(C(=O)C4(C(F)(F)F)CC4)C3)c(C(F)(F)F)c2)cn1` [cathepsin S inhibitor, (2S,4R)-4-[4-(1-methyl-1H-pyrazol-4-yl)-2-trifluoromethyl-benzenesulfonyl]-1-(1-trifluoromethyl-cyclopropanecarbonyl)-pyrrolidine-2-carboxylic acid (1-cyano-cyclopropyl)-amide]: the “ADA to adalimumab (adalimumab-specific IgG) over time” value is on record as “reduces ADA to adalimumab”.

The values above are taken from patent US12419862B2, “Use of a cathepsin s inhibitor against the formation of anti-drug antibodies” (Hoffmann-La Roche Inc., priority 2018, dated 2025).
